Experimental data: ChEMBL document CHEMBL4699423, “Photocontrolled activation of small molecule cancer therapeutics” (RSC Med Chem, 2020)

Key:
MDA-MB-231 [1] = assay: Cytotoxicity against human MDA-MB-231 cells in dark; format: functional, cell-based
MDA-MB-231 [2] = assay: Cytotoxicity against human MDA-MB-231 cells; format: functional, cell-based
MDA-MB-468 = assay: Cytotoxicity against human MDA-MB-468 cells; format: functional; details: read-out: LD50 (the source's name)
HCT-116 = assay: Cytotoxicity against human HCT-116 cells; format: functional; details: read-out: LD50 (the source's name)
[3] = Cytotoxicity against human MCF-10A cells; format: cell-based; details: read-out: LD50 (the source's name)

## COc1ccc(/N=N/c2cc(OC)c(OC)c(OC)c2)cc1O
MDA-MB-231 [1]
  EC50: 38000 nM

## COc1ccc(/N=N\c2cc(OC)c(OC)c(OC)c2)cc1O
MDA-MB-231 [2]
  EC50: 500 nM

## CC(C)C[C@H](NC(=O)[C@@H](NC(=O)c1ccc(/N=N\c2ccc(-c3ccccc3)cc2)cc1)[C@@H](C)O)B1OC2C[C@@H]3C[C@H](C2O1)C3(C)C (stereo partly drawn)
MDA-MB-468
  CC50: 1030 nM
HCT-116
  CC50: 212 nM
[3]
  CC50: 144 nM

## CC(C)C[C@H](NC(=O)[C@@H](NC(=O)c1ccc(/N=N/c2ccc(-c3ccccc3)cc2)cc1)[C@@H](C)O)B1OC2C[C@@H]3C[C@H](C2O1)C3(C)C (stereo partly drawn)
MDA-MB-468
  CC50: 683 nM
HCT-116
  CC50: 246 nM
[3]
  CC50: > 5000 nM
